In patent publication US20080102476A1, “Analyzing Histamine H4 Receptor-Mediated Effects In Whole Blood” (priority 2003, published 2008):
Read-outs that look alike come from different tables or passages of the source. Blank lines part the entries; values can stand above or below the molecule they belong to.

Tests used:
human eosinophils [1] = details: cited from earlier work
human eosinophils [2] = experiment: Eosinophil shape change in human PMNL by flow cytometry (GAFS assay); type: cell-based; details: for IC50: Homo sapiens, Eosinophil, 1 μM histamine, FIG. 4B; for effect on histamine-induced eosinophil shape change: antagonist 10 μM, 1 μM histamine 10 min; for agonist effect on eosinophil shape change: FIG. 4C; for EC50: FIG. 3D
Protocol: PMNL were prepared as described above and cells were resuspended in assay buffer (PBS containing 10 mM Ca^2+ and Mg^2+, 10 mM HEPES, 10 mM glucose, and 0.1% BSA, pH 7.2-7.4). Aliquots of cells (5×10^5 PMNL in 80 μl assay buffer) were pretreated with histamine receptor analogues (diphenhydramine, ranitidine, thioperamide, Compound A or H3 receptor antagonist) for 10 min at room temperature before addition of histamine or chemokines in 1.2-ml polypropylene cluster tubes (Costar, Cambridge, Mass.) in a final volume of 100 μl. The tubes were placed in a 37° C. water bath for 10 min (or as indicated), after which they were transferred to an ice-water bath, and 250 μl of ice-cold fixative (2% paraformaldehyde in PBS) was added to terminate the reaction and to maintain the cell shape change. […] Cell shape change was monitored in forward scatter signals. To identify eosinophils and neutrophils in PMNL, cells were stained on ice for 30 min with saturating concentrations of FITC-conjugated anti-CCR3 or anti-CD16 antibodies, which are specific for eosinophils or neutrophils, respectively. Samples after antibody staining were analyzed in flow cytometry.

[3] = tested on: purified human eosinophils; experiment: In vitro eosinophil chemotaxis assay (Transwell); type: cell-based; details: for IC50: 1 μM histamine in lower chamber, read-out: IC50 in blocking 1 μM histamine-induced eosinophil chemotaxis; for effect on histamine-induced eosinophil chemotaxis: antagonist 10 μM in both chambers; for EC50: 2 h
Protocol: Transwells (Costar, Cambridge, Mass.) with 5 μm pore size were coated with 100 μl of 100 ng/ml human fibronectin (Sigma) for 2 h at room temperature. After removal of excess fibronectin, 600 μl of RPMI-1640 medium containing 0.5% BSA and different concentrations of histamine (0.01-100 μM) was added to the bottom chamber, Eosinophils (2×10^5/well) were added to the top chamber. Histamine receptor analogues (diphenhydramine, ranitidine, thioperamide, Compound A or Compound B) were added to both the top and bottom chambers to a final concentration of 10 μM or at other concentration as stated in figure legends. The plates were incubated for 2 h at 37° C. and the number of cells migrated to the bottom chamber was counted for 1 min using flow cytometer.

human eosinophils [4] = experiment: Cell surface expression of adhesion molecules on eosinophils by flow cytometry; type: cell-based; details: for effect on histamine-induced up-regulation of CD11b/CD18 and CD54 expression: antagonist 10 μM
Protocol: Purified eosinophils were used to study cell surface expression of adhesion molecules. Eosinophils were resuspended in PBS containing 10 mM Ca^2+ and Mg^2+, 10 mM HEPES, 10 mM glucose, and 0.1% BSA, pH 7.2-7.4. Aliquots of cells (5×10^5 PMNL) were pretreated with histamine receptor analogues (as described above) for 10 min before addition of histamine or chemokines in 1.2-ml polypropylene cluster tubes (Costar, Cambridge, Mass.) in a final volume of 100 μl. The tubes were placed in a 37° C. water bath for 10 min (or as indicated), after which they were transferred to an ice-water bath, and 250 μl of ice-cold fixative (0.5% paraformaldehyde in PBS) was added. Samples were then incubated on ice for 30 min with saturating concentration of either FITC or phycoerytherine-conjugated anti-CD11a, anti-CD11b or anti-CD54 antibodies, washed, and then analyzed by flow cytometry.

[5] = tested on: eosinophils in human whole blood; experiment: Whole blood eosinophil shape change GAFS assay (Example 1A); type: cell-based; details: for agonist effect on eosinophil shape change in whole blood: FIGS. 9A and 9B
Protocol: Starting materials were obtained as described in the experiments above. Human whole blood samples were used to study eosinophil shape change response. Human blood samples collected from healthy donors were treated with 3.8% tri-sodium citrate as anti-coagulator (or other anti-coagulators) and centrifuges at 300 rpm. The samples were used for experiments within 1 hour. Aliquots of 80 μl whole blood were pretreated with histamine receptor analogues (such as H1 receptor antagonist diphenhydramine, H2 antagonist ranitidine, H4 receptor antagonists thioperamide and Compound A, and H3 receptor antagonist Compound B) for 10 minutes before addition of histamine or chemokines in 1.2-ml polypropylene cluster tubes (Costar, Cambridge, Mass.) in a final volume of 100 μl. The tubes were placed in a 37° C. water bath for 10 min, after which they were transferred to an ice-water bath, and 250 μl of ice-cold fixative (2% paraformaldehyde in PBS or other fixatives) was added to terminate the reaction and to maintain the cell shape change. Red cells were lysed with 3 ml Qiagen lysis solution (Qiagen, Valencia, Calif.) for 10 minutes at 4° C. Leukocytes were recovered by centrifugation at 2000 rpm for 5 minutes, washed once with either PBS containing 10 mM Ca^2+ and Mg^2+, 10 mM HEPES, 10 mM glucose, and 0.1% BSA (for FIGS. 10 and 11) or PBS containing 0.5% BSA and 2 mM EDTA (for other figures), and then resuspended in the same buffer. The cell shape change was analyzed on a FACScan flow cytometer (Becton Dickinson, Mountain View, Calif.). Eosinophils were gated based on their high autofluorescence relative to neutrophils and shape change was monitored in forward scatter signals. Data were acquired for 1500 high-fluorescence eosinophil events. The results are expressed as the percentage increase in FSC compared to unstimulated cells. Results obtained are provided in the Tables I and II, below, which also correspond to FIG. 7 and FIG. 8, respectively.

[6] = cited from earlier work
human neutrophils = details: 1 μM, 10 min
Protocol: Human PMNL samples were used to study eosinophil shape change response. PMNL were prepared as described above and cells were resuspended in assay buffer (PBS containing 10 mM Ca^2+ and Mg^2+, 10 mM HEPES, 10 mM glucose, and 0.1% BSA, pH 7.2-7.4). Aliquots of cells (5×10^5 PMNL in 80 μl assay buffer) were pretreated with histamine receptor analogues (diphenhydramine, ranitidine, thioperamide, Compound A or H3 receptor antagonist) for 10 min at room temperature before addition of histamine or chemokines in 1.2-ml polypropylene cluster tubes (Costar, Cambridge, Mass.) in a final volume of 100 μl. […] The cell shape change was analyzed with the flow cytometer (Becton Dickinson, Mountain View, Calif.). […] Cell shape change was monitored in forward scatter signals. […] Samples after antibody staining were analyzed in flow cytometry.
The analysis of eosinophil cell shape change by flow cytometry, known as gated autofluorescence forward scatter (GAFS) assay, allows a quantitative measurement of cell shape change induced by chemoattractants (Sabroe et al., 1999, “Differential regulation of eosinophil chemokine signaling via CCR3 and non-CCR3 pathways,” J. Immunol., 162, 2946-2955). […]

[7] = tested on: eosinophils in human whole blood; experiment: Whole blood eosinophil shape change assay with ranitidine co-treatment (Example 1B); type: cell-based; details: FIG. 11
Protocol: In this example, starting materials were obtained as described in Example 1A. Human whole blood samples were used to study eosinophil shape change response. Human blood samples collected from healthy donors were treated with 3.8% tri-sodium citrate as anti-coagulator (or other anti-coagulators) and centrifuges at 300 rpm. The samples were used for experiments within 1 hour. […] The cell shape change was analyzed on a FACScan flow cytometer (Becton Dickinson, Mountain View, Calif.). Eosinophils were gated based on their high autofluorescence relative to neutrophils and shape change was monitored in forward scatter signals. Data were acquired for 1500 high-fluorescence eosinophil events. Results are expressed as the percentage increase in FSC compared to unstimulated cells.

[8] = read-out: IC50 in blocking 1 μM histamine-induced eosinophil shape change
[9] = after histamine treatment, FIG. 3A
[10] = histamine 0.1 uM alone, lower part
[11] = histamine 1 uM alone, lower part
[12] = histamine 10 uM alone, lower part
[13] = histamine 0.1 uM + compound A 10 uM
[14] = histamine 1 uM + compound A 10 uM
[15] = histamine 10 uM + compound A 10 uM

Molecule: S=C(NC1CCCCC1)N1CCC(c2cnc[nH]2)CC1 [thioperamide]
effect on eosinophil chemotaxis toward histamine (human eosinophils [1]): blocked | IC50 (human eosinophils [2]; [8]): 128 nM | effect on histamine-induced eosinophil shape change (human eosinophils [2]): blocked the histamine-induced eosinophil shape change completely | IC50 ([3]; Homo sapiens, Eosinophil): 519 nM | effect on histamine-induced eosinophil chemotaxis [3]: inhibited completely | effect on histamine-induced up-regulation of CD11b/CD18 and CD54 expression (human eosinophils [4]): abolished

Molecule: CN(C)CCOC(c1ccccc1)c1ccccc1 [diphenhydramine]
effect on histamine-induced eosinophil shape change (human eosinophils [2]): did not show any inhibitory effects | effect on histamine-induced eosinophil chemotaxis [3]: minimal | effect on histamine-induced up-regulation of CD11b/CD18 and CD54 expression (human eosinophils [4]): ineffective

Molecule: N=C(N)SCCc1cnc[nH]1 [imetit]
agonist effect on eosinophil shape change (human eosinophils [2]): partial shape change | agonist effect on eosinophil shape change in whole blood [5]: mimic histamine in inducing eosinophil shape change

Molecule: eotaxin: chemokine purchased from R&D Systems
EC50 (human eosinophils [2]; human PMNL, chemokines): 0.017 nM

Molecule: NC(=NCc1ccc(Cl)cc1)SCCCc1cnc[nH]1 [clobenpropit]
agonist effect on eosinophil shape change (human eosinophils [2]): partial shape change | agonist effect on eosinophil shape change in whole blood [5]: mimic histamine in inducing eosinophil shape change

Further lines, with some results ahead:

IC50 (human eosinophils [2]; read-out: IC50 in blocking 1 μM histamine-induced eosinophil shape change (ineffective up to)): > 30000 nM
Molecule: Cc1ccn2cc(-c3ccc(OCCCN4CCCCC4)cc3)nc2c1 [Compound B, 7-methyl-2-[4-(3-piperidin-1-yl-propoxy)-phenyl]-imidazo[1,2-a]pyridine]
effect on histamine-induced eosinophil shape change (human eosinophils [2]): did not show any inhibitory effects | effect on histamine-induced eosinophil chemotaxis [3]: minimal | effect on histamine-induced up-regulation of CD11b/CD18 and CD54 expression (human eosinophils [4]): ineffective

EC50 (human eosinophils [2]; human PMNL): 44 nM | EC50 ([3]; Homo sapiens, Eosinophil, Transwell): 83 nM
Molecule: NCCc1c[nH]cn1 [histamine, 4-(2-amino-ethyl)imidazole]
cell shape change on eosinophils (human eosinophils [2]; 1 μM, 10 min): significant cell shape change | eosinophil shape change at 100 μM histamine (human eosinophils [2]; 100 μM): no shape change | earliest time at which eosinophil shape change is detected (human eosinophils [2]; [9]): 1 min | time of maximal eosinophil shape change (human eosinophils [2]; [9]): 5 min | time of return to the original cell shape (human eosinophils [2]; [9]): 40 min | combined effect on eosinophil shape change (human eosinophils [2]; histamine combined with MCP-3, sub-optimal concentrations): Partial additive effects | optimal concentration for maximal shape change on eosinophils (human eosinophils [2]; human PMNL, 10 min): ~1 µM | % change (increase in FSC compared to unstimulated cells) ([5]; histamine 0.01 uM, upper part): 6.1% | GeoMean (FSC of eosinophils) ([5]; histamine 0.01 uM, upper part): 239.8 | % change (increase in FSC compared to unstimulated cells) [5, 10]: 20.1% | GeoMean (FSC of eosinophils) [5, 10]: 327.7 | % change (increase in FSC compared to unstimulated cells) ([5]; histamine 0.1 uM, upper part): 20.0% | GeoMean (FSC of eosinophils) ([5]; histamine 0.1 uM, upper part): 271.3 | % change (increase in FSC compared to unstimulated cells) [5, 11]: 18.0% | GeoMean (FSC of eosinophils) [5, 11]: 321.9 | % change (increase in FSC compared to unstimulated cells) ([5]; histamine 1 uM, upper part): 16.4% | GeoMean (FSC of eosinophils) ([5]; histamine 1 uM, upper part): 263.3 | % change (increase in FSC compared to unstimulated cells) [5, 12]: 11.1% | GeoMean (FSC of eosinophils) [5, 12]: 303.3 | % change (increase in FSC compared to unstimulated cells) ([5]; histamine 10 uM, upper part): 17.2% | GeoMean (FSC of eosinophils) ([5]; histamine 10 uM, upper part): 265.0 | % change (increase in FSC compared to unstimulated cells) ([5]; histamine 100 uM, upper part): 30.8% | GeoMean (FSC of eosinophils) ([5]; histamine 100 uM, upper part): 295.8 | concentration at which a significant eosinophil shape change was detected ([5]; whole blood, FIG. 7): ~0.1 µM | half-life in serum [6]: around 1 min | effect on eosinophil chemotaxis induced by eotaxin-2 and MCP-3 ([3]; 0.5 μM histamine): enhanced | concentration for maximal chemotactic effect on eosinophils ([3]; Transwell): 1 µM | nature of the effect on eosinophil migration ([3]; disruption of concentration gradient): chemotactic but not chemokinetic | expression of CD11a/CD18 (LFA-1) on eosinophils (human eosinophils [4]): not induced | optimal concentration for maximal up-regulation of CD11b/CD18 and CD54 (human eosinophils [4]; 10-minute stimulation): 10 µM | cell surface expression of CD11b/CD18 (Mac-1) and CD54 (ICAM-1) on eosinophils (human eosinophils [4]; 10 min, 37° C.): induced by histamine in a concentration-dependent manner | persistence of the increase in cell surface adhesion molecules (human eosinophils [4]; 60 minutes incubation): maintained | cell shape change on neutrophils (human neutrophils): no effects

IC50 (human eosinophils [2]; [8]): 270 nM | IC50 ([3]; Homo sapiens, Eosinophil): 86 nM
Molecule: CN1CCN(C(=O)c2cc3cc(Cl)ccc3[nH]2)CC1 [Compound A, (5-chloro-1H-indol-2-yl)-(4-methyl-piperazin-1-yl)-methanone]
effect on histamine-induced eosinophil shape change (human eosinophils [2]): blocked the histamine-induced eosinophil shape change completely | GeoMean (FSC of eosinophils) ([5]; histamine 0.00 uM + Compound A 10 uM): 268.1 | % change (increase in FSC compared to unstimulated cells) ([5]; histamine 0 uM + compound A 10 uM): 0.0% | % change (increase in FSC compared to unstimulated cells) [5, 13]: 1.5% | GeoMean (FSC of eosinophils) [5, 13]: 272.1 | % change (increase in FSC compared to unstimulated cells) [5, 14]: 1.1% | GeoMean (FSC of eosinophils) [5, 14]: 270.9 | % change (increase in FSC compared to unstimulated cells) [5, 15]: −0.3% | GeoMean (FSC of eosinophils) [5, 15]: 267.3 | effect on eosinophil shape changes induced by histamine from 0.1 to 10 μM ([5]; whole blood, FIG. 8): blocked | effect on histamine-induced eosinophil chemotaxis [3]: inhibited completely | effect on histamine-induced up-regulation of CD11b/CD18 and CD54 expression (human eosinophils [4]): abolished | effect on H4 receptor-dependent shape change (histamine + ranitidine) [7]: antagonized

EC50 (human eosinophils [2]; human PMNL, chemokines): 0.202 nM | EC50 ([3]; Transwell): 43 nM
Molecule: MCP-3: chemokine purchased from R&D Systems

EC50 (human eosinophils [2]; human PMNL, chemokines): 0.021 nM | EC50 ([3]; Transwell): 1.9 nM
B1: eotaxin-2: chemokine, positive control in the whole blood assay (protein, UniProt O00175 27-119, looked up)
C-C motif chemokine 24: VVIPSPCCMFFVSKRIPENRVVSYQLSSRSTCLKAGVIFTTKKGQQFCGDPKQEWVQRYMKNLDAKQKKASPRARAVAVKGPVQRYPGNQTTC
% change (increase in FSC compared to unstimulated cells) ([5]; Eotaxin2 0.01 nM): 3.5% | GeoMean (FSC of eosinophils) ([5]; Eotaxin2 0.01 nM): 233.4 | % change (increase in FSC compared to unstimulated cells) ([5]; Eotaxin2 0.1 nM): 1.0% | GeoMean (FSC of eosinophils) ([5]; Eotaxin2 0.1 nM): 227.7 | % change (increase in FSC compared to unstimulated cells) ([5]; Eotaxin2 1 nM): 26.3% | GeoMean (FSC of eosinophils) ([5]; Eotaxin2 1 nM): 284.7 | % change (increase in FSC compared to unstimulated cells) ([5]; Eotaxin2 10 nM): 53.4% | GeoMean (FSC of eosinophils) ([5]; Eotaxin2 10 nM): 346.0 | % change (increase in FSC compared to unstimulated cells) ([5]; Eotaxin2 100 nM): 19.4% | GeoMean (FSC of eosinophils) ([5]; Eotaxin2 100 nM): 269.3
